These results are taken from US8933103B2, “Pyridone derivatives” (Daiichi Sankyo Company, Limited, priority 2012, dated 2015).

The term IC50 denotes the point on the concentration scale where inhibition reaches its midpoint.

The experiment has as its target T1, AXL (fusion protein of amino acids 464-885 of the intracellular domain of human AXL with glutathione transferase) (Homo sapiens, UniProt P30530).
T1 sequence (P30530 464-885 isoform P30530-2): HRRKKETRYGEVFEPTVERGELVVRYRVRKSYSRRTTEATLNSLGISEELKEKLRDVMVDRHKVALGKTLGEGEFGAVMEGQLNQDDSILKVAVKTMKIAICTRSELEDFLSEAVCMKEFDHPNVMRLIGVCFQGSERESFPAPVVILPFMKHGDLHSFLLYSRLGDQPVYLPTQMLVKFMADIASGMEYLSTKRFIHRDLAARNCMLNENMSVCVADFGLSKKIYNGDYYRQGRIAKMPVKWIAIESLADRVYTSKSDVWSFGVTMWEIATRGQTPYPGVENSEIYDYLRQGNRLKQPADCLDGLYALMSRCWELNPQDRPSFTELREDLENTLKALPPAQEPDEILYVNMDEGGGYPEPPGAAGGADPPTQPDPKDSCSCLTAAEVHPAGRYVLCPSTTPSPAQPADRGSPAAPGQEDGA
The experiment can be described thus: Cell-Free Axl Kinase Inhibitory Activity.
The compound `Cn1cc(-c2cnc(N)c(-c3ccc(NC(=O)c4cn(CC(F)(F)F)cc(-c5ccc(F)cc5)c4=O)cc3)c2)cn1` [Example 50, N-{4-[2-Amino-5-(1-methyl-1H-pyrazol-4-yl)pyridin-3-yl]phenyl}-5-(4-fluorophenyl)-4-oxo-1-(2,2,2-trifluoroethyl)-1,4-dihydropyridine-3-carboxamide] gave an IC50 of 0.1 to 1 nM.

`COc1ccc(-c2cnc(N)c(-c3ccc(NC(=O)c4cn(CCF)cc(-c5ccccc5)c4=O)cc3)c2)cc1OC` [Example 19, N-{4-[2-Amino-5-(3,4-dimethoxyphenyl)pyridin-3-yl]phenyl}-1-(2-fluoroethyl)-4-oxo-5-phenyl-1,4-dihydropyridine-3-carboxamide] had a half-inhibitory concentration (IC50) of 1 to 10 nM.

Consider `CCn1cc(C(=O)Nc2ccc(-c3cc(-c4ccc(OC)c(OC)c4)cnc3N)cc2)c(=O)c(-c2ccc(F)cc2)c1` [Example 3, N-{4-[2-Amino-5-(3,4-dimethoxyphenyl)pyridin-3-yl]phenyl}-1-ethyl-5-(4-fluorophenyl)-4-oxo-1,4-dihydropyridine-3-carboxamide], for which the IC50 is 0.1 to 1 nM.

The compound `COc1ncnc(N)c1-c1ccc(NC(=O)c2cn(CC(F)(F)F)cc(-c3ccc(F)cc3)c2=O)cc1` [Example 86, N-[4-(4-Amino-6-methoxypyrimidin-5-yl)phenyl]-5-(4-fluorophenyl)-4-oxo-1-(2,2,2-trifluoroethyl)-1,4-dihydropyridine-3-carboxamide] returned an IC50 of 1 to 10 nM.

In the case of `COc1ccc(-n2cc(-c3ccc(F)cc3)c(=O)c(C(=O)Nc3ccc(-c4cc(-c5cnn(C)c5)cnc4N)cc3)n2)cc1` [Example 61, N-{4-[2-Amino-5-(1-methyl-1H-pyrazol-4-yl)pyridin-3-yl]phenyl}-5-(4-fluorophenyl)-1-(4-methoxyphenyl)-4-oxo-1,4-dihydropyridazine-3-carboxamide], the IC50 lay within 1 to 10 nM.

For the compound `CC(O)Cn1cc(-c2cnc(N)c(-c3ccc(NC(=O)c4cn(CCF)cc(-c5ccc(F)cc5)c4=O)cc3)c2)cn1` (racemic) [Example 63, N-(4-{2-Amino-5-[1-(2-hydroxypropyl)-1H-pyrazol-4-yl]pyridin-3-yl}phenyl)-1-(2-fluoroethyl)-5-(4-fluorophenyl)-4-oxo-1,4-dihydropyridine-3-carboxamide], the IC50 fell in the range of 1 to 10 nM.

With `CCn1cc(C(=O)Nc2ccc(-c3cc(-c4cnn(C)c4)cnc3N)cc2)c(=O)c(-c2ccccc2)c1` [Example 52, N-{4-[2-Amino-5-(1-methyl-1H-pyrazol-4-yl)pyridin-3-yl]phenyl}-1-ethyl-4-oxo-5-phenyl-1,4-dihydropyridine-3-carboxamide], the IC50 was 1 to 10 nM.

In turn, `CCn1cc(C(=O)Nc2ccc(-c3cc(-c4ccc(OC[C@H]5COCCO5)c(OC)c4)cnc3N)cc2)c(=O)c(-c2ccccc2)c1` [Example 45, N-[4-(2-Amino-5-{4-[(2R)-1,4-dioxan-2-ylmethoxy]-3-methoxyphenyl}pyridin-3-yl)phenyl]-1-ethyl-4-oxo-5-phenyl-1,4-dihydropyridine-3-carboxamide] showed an IC50 of 1 to 10 nM.

As for `COc1cn(Cc2ccc(F)cc2)cc(C(=O)Nc2ccc(-c3cc(-c4cnn(C)c4)cnc3N)cc2)c1=O` [Example 59, N-{4-[2-Amino-5-(1-methyl-1H-pyrazol-4-yl)pyridin-3-yl]phenyl}-1-(4-fluorobenzyl)-5-methoxy-4-oxo-1,4-dihydropyridine-3-carboxamide], the IC50 fell in the range of 10 to 20 nM.

As to `COc1ccc(-c2cnc(N)c(-c3ccc(NC(=O)c4cn(CC(F)(F)F)cc(-c5ccc(F)cc5)c4=O)cc3F)c2)cc1OC` [Example 29, N-{4-[2-Amino-5-(3,4-dimethoxyphenyl)pyridin-3-yl]-3-fluorophenyl}-5-(4-fluorophenyl)-4-oxo-1-(2,2,2-trifluoroethyl)-1,4-dihydropyridine-3-carboxamide], the IC50 was 0.1 to 1 nM.

For the compound `Cn1cc(-c2cnc(N)c(-c3ccc(NC(=O)c4cn(CC(F)F)cc(-c5ccc(F)cc5)c4=O)cc3)c2)cn1` [Example 49, N-{4-[2-Amino-5-(1-methyl-1H-pyrazol-4-yl)pyridin-3-yl]phenyl}-1-(2,2-difluoroethyl)-5-(4-fluorophenyl)-4-oxo-1,4-dihydropyridine-3-carboxamide], the half-maximal inhibitory concentration (IC50) fell in the range of 1 to 10 nM.

As to `COCCn1cc(C(=O)Nc2ccc(-c3cc(-c4ccc(OC)c(OC)c4)cnc3N)cc2)c(=O)c(-c2ccc(F)cc2)c1` [Example 5, N-{4-[2-Amino-5-(3,4-dimethoxyphenyl)pyridin-3-yl]phenyl}-5-(4-fluorophenyl)-1-(2-methoxyethyl)-4-oxo-1,4-dihydropyridine-3-carboxamide], the IC50 was in the range of 0.1 to 1 nM.

Take `CCn1cc(C(=O)Nc2ccc(-c3cc(-c4cnn(C)c4)cnc3N)cc2)c(=O)c(-c2ccc(F)cc2)c1` [Example 47, N-{4-[2-Amino-5-(1-methyl-1H-pyrazol-4-yl)pyridin-3-yl]phenyl}-1-ethyl-5-(4-fluorophenyl)-4-oxo-1,4-dihydropyridine-3-carboxamide]: the IC50 is 1 to 10 nM.

For `COCCn1cc(C(=O)Nc2ccc(-c3cc(-c4cnn(C[C@H]5COCCO5)c4)cnc3N)cc2)c(=O)c(-c2ccc(F)cc2)c1` [Example 66, N-[4-(2-Amino-5-{1-[(2S)-1,4-dioxan-2-ylmethyl]-1H-pyrazol-4-yl}pyridin-3-yl)phenyl]-5-(4-fluorophenyl)-1-(2-methoxyethyl)-4-oxo-1,4-dihydropyridine-3-carboxamide], the IC50 lay within 1 to 10 nM.

In turn, `COc1ccc(-c2cnc(N)c(-c3ccc(NC(=O)c4cn(CC(=O)N(C)C)cc(-c5ccc(F)cc5)c4=O)cc3)c2)cc1OC` [Example 16, N-{4-[2-Amino-5-(3,4-dimethoxyphenyl)pyridin-3-yl]phenyl}-1-[2-(dimethylamino)-2-oxoethyl]-5-(4-fluorophenyl)-4-oxo-1,4-dihydropyridine-3-carboxamide] registered an IC50 of 1 to 10 nM.

In turn, `Nc1ncc(-c2cnn(C[C@H]3COCCO3)c2)cc1-c1ccc(NC(=O)c2cn(Cc3ccc(F)cc3)cc(C(=O)N3CCC(F)(F)C3)c2=O)cc1` [Example 73, N-[4-(2-Amino-5-{1-[(2S)-1,4-dioxan-2-ylmethyl]-1H-pyrazol-4-yl}pyridin-3-yl)phenyl]-5-[(3,3-difluoropyrrolidin-1-yl)carbonyl]-1-(4-fluorobenzyl)-4-oxo-1,4-dihydropyridine-3-carboxamide] had a half-maximal inhibitory concentration (IC50) of 10 to 20 nM.

Compound `CCn1cc(C(=O)Nc2ccc(-c3cc(-c4ccc(OC[C@H]5COCCO5)c(OC)c4)cnc3N)cc2)c(=O)c(-c2ccc(F)cc2)c1` [Example 46, N-[4-(2-Amino-5-{4-[(2R)-1,4-dioxan-2-ylmethoxy]-3-methoxyphenyl}pyridin-3-yl)phenyl]-1-ethyl-5-(4-fluorophenyl)-4-oxo-1,4-dihydropyridine-3-carboxamide] came in with an IC50 of 1 to 10 nM.

`Cc1cc(-c2cnc(N)c(-c3ccc(NC(=O)c4cn(CC(F)(F)F)cc(-c5ccc(F)cc5)c4=O)cc3)c2)ccn1` [Example 77, N-[4-(6-Amino-2′-methyl-3,4′-bipyridin-5-yl)phenyl]-5-(4-fluorophenyl)-4-oxo-1-(2,2,2-trifluoroethyl)-1,4-dihydropyridine-3-carboxamide] returned an IC50 of 0.1 to 1 nM.

The compound `COc1cc(-c2cnc(N)c(-c3ccc(NC(=O)c4cn(CC(F)(F)F)cc(-c5ccc(F)cc5)c4=O)cc3)c2)ccc1O` [Example 37, N-{4-[2-Amino-5-(4-hydroxy-3-methoxyphenyl)pyridin-3-yl]phenyl}-5-(4-fluorophenyl)-4-oxo-1-(2,2,2-trifluoroethyl)-1,4-dihydropyridine-3-carboxamide] displayed an IC50 of 1 to 10 nM.

`COc1ccc(-c2cnc(N)c(-c3ccc(NC(=O)c4cn(Cc5ccc(F)cc5)cc(C(=O)N5CCCC5)c4=O)cc3)c2)cc1OC` [Example 26, N-{4-[2-Amino-5-(3,4-dimethoxyphenyl)pyridin-3-yl]phenyl}-1-(4-fluorobenzyl)-4-oxo-5-(pyrrolidin-1-ylcarbonyl)-1,4-dihydropyridine-3-carboxamide] registered an IC50 of 0.1 to 1 nM.

`Nc1ncc(-c2cnn(C[C@H]3COCCO3)c2)cc1-c1ccc(NC(=O)c2cn(Cc3ccc(F)cc3)cc(C(=O)N3CCCC3)c2=O)cc1` [Example 71, N-[4-(2-Amino-5-{1-[(2S)-1,4-dioxan-2-ylmethyl]-1H-pyrazol-4-yl}pyridin-3-yl)phenyl]-1-(4-fluorobenzyl)-4-oxo-5-(pyrrolidin-1-ylcarbonyl)-1,4-dihydropyridine-3-carboxamide] had an IC50 of 0.1 to 1 nM.

`COc1ccc(-c2cnc(N)c(-c3ccc(NC(=O)c4cn(Cc5ccccc5)cc(-c5ccc(F)cc5)c4=O)cc3)c2)cc1OC` [Example 10, N-{4-[2-Amino-5-(3,4-dimethoxyphenyl)pyridin-3-yl]phenyl}-1-benzyl-5-(4-fluorophenyl)-4-oxo-1,4-dihydropyridine-3-carboxamide]: the IC50 was 1 to 10 nM.

The compound `COc1ccc(-c2cnc(N)c(-c3ccc(NC(=O)c4cn(CC(F)(F)F)cc(-c5ccc(C)cc5)c4=O)cc3)c2)cc1OC` [Example 24, N-{4-[2-Amino-5-(3,4-dimethoxyphenyl)pyridin-3-yl]phenyl}-5-(4-methylphenyl)-4-oxo-1-(2,2,2-trifluoroethyl)-1,4-dihydropyridine-3-carboxamide] displayed an IC50 of 0.1 to 1 nM.

Take `COc1ccc(-c2cnc(N)c(-c3ccc(NC(=O)c4cn(CC(F)(F)F)cc(-c5ccc(F)cc5)c4=O)cn3)c2)cc1OC` [Example 87, N-[2′-Amino-5′-(3,4-dimethoxyphenyl)-2,3′-bipyridin-5-yl]-5-(4-fluorophenyl)-4-oxo-1-(2,2,2-trifluoroethyl)-1,4-dihydropyridine-3-carboxamide]: the IC50 is 1 to 10 nM.
